Assay in all cases: NCI anticancer screen, dose series, 48 h
The subject of test [1] is HOP-62 NSCLC.
Test [2] concerns MDA-MB-435.
For test [3], the system named is SN12C renal.
Test [4] has as its system MOLT-4 leukemia.
For test [5], the system named is SF-295 CNS.
Test [6] concerns RPMI-8226 leukemia.

22 molecules from PubChem BioAssay (NCI) can be followed below.

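Where inhibition never reached the appropriate level, the endpoint shown equals the highest concentration tested. Otherwise, values were interpolated linearly from a five-concentration, 48-hour dose response in 96-well plates. TGI is the concentration that stops growth completely.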 *1 amine or outer side, *2 acyl side, *3 side chain or, on linkers, in order; H or OH if unused. Where a SMILES comes first, the peptide text is derived from it. Bridges are numbered along the chain shown (N, C = ends). [ ]: non-standard residue; d: D form. The star is where a group is joined. X34 = O=C(C(CCCCNO[*:3])N[*:1])[*:2]; Fmoc = O=C(OCC1c2ccccc2-c2ccccc21)*

On to `N#CC(C#N)N=Nc1ccc(-c2nc3ccccc3o2)cc1`, for which the TGI was 38.5 µM in test [1], 52.9 µM in test [2], 30.5 µM in test [3] and 37 µM in test [4].
On to `NC(=O)CNC(=O)C1CCCN1C(=O)C1CCCCNOC(=O)CCC(NC(=O)OCC2c3ccccc3-c3ccccc32)C(=O)NC(Cc2c[nH]c3ccccc23)C(=O)N1` (stereo not drawn) (Fmoc-EW[X34]PG-NH2; ester 1-3; configuration not given here), for which the TGI in test [5], in test [1], in test [6], in test [2], in test [3] and in test [4] was over 100 µM throughout.
Regarding `COc1cccc(Nc2nc(N)nc(N)c2N)c1`, the TGI is 60.7 µM in test [5]; over 100 µM in test [1]; 68.3 µM in test [6]; over 100 µM in test [2]; 37.8 µM in test [3]; 34.5 µM in test [4].
In the case of `ON[C@H]1C[C@@H](n2cnc3c(NC4CC4)ncnc32)[C@H](O)[C@@H]1O`, the TGI in test [5], in test [1], in test [6], in test [2], in test [3] and in test [4] was over 100 µM in each case.
Take `O=C(N/N=C/c1ccc([N+](=O)[O-])cc1)Nc1ccc(Br)cc1`: the TGI in test [5], in test [1], in test [6], in test [2], in test [3] and in test [4] was over 100 µM throughout.
Regarding `COc1ccc(NC(C)=O)c(C(O)CCNC(C)=O)c1` (stereo not drawn), the TGI in test [5], in test [6], in test [2], in test [3] and in test [4] was over 100 µM each time.
Turning to `COc1cc2c(cc1OC)C(=O)C1(C2)[C@H](c2ccccc2)C2C(=O)c3cc(OC)c(OC)cc3C2[C@H]1c1ccccc1` (stereo partly drawn), the TGI in test [5], in test [1], in test [6], in test [2], in test [3] and in test [4] was over 100 µM in each case.
On to `CSC1=NNC(SC)=NN1`, for which the TGI in test [5] was 0.34 µM; in test [1], 0.398 µM; in test [6] it was over 1 µM; in test [2] it was 0.321 µM; in test [3] it was 0.322 µM; in test [4], 0.114 µM.
On to `C=C1C(=O)OC2C3C(=C)[C@@H](OC(C)=O)CC3C(C)=CC(OC(=O)C(C)(OC(C)=O)C(C)OC(C)=O)[C@@H]12` (stereo partly drawn), for which the TGI was over 100 µM in test [5]; over 100 µM in test [1]; 38.5 µM in test [6]; 31.2 µM in test [2]; 29.5 µM in test [3]; 52.2 µM in test [4].
With `CN(C)c1ccc(C2CC(c3ccc4ccccc4c3O)=NN2c2ccc([N+](=O)[O-])cc2[N+](=O)[O-])cc1` (stereo not drawn), the TGI in test [5] is over 100 µM; in test [1], over 100 µM; in test [2], 34.6 µM; in test [3] it was over 100 µM; in test [4], 94.5 µM.
In the case of `CC(=O)n1cc(OP(=O)(Oc2ccccc2)Oc2ccccc2)c2ccccc21`, the TGI in test [5] was 57.3 µM; in test [6], 42.2 µM; in test [2], 50.3 µM; in test [3] it was over 100 µM; in test [4], 50.9 µM.
Regarding `N=CN=CC(=S)O[C@@H]1C(=O)N2CCC[C@@]23CCCC[C@@H]13`, the TGI in test [5], in test [1], in test [6], in test [2] and in test [3] was over 12.5 µM each time.
As for `CCCCCCCCCCCCCCCCOP(=O)(O)OCC(NC(C)=O)C(=O)O` (stereo not drawn), the TGI in test [5] was 47.4 µM; in test [1], 36.9 µM; in test [6], over 100 µM; in test [2], over 100 µM; in test [3], over 100 µM; in test [4], 51.8 µM.
Consider `COC(=O)C1=C(C)NC(C)=C(C(=O)OC)C1c1ccc(N=O)cc1`, for which the TGI in test [5] was over 61.3 µM; in test [1] it was over 55.3 µM; in test [6], 5.02 µM; in test [2], 32.6 µM; in test [3], 35.8 µM; in test [4], over 100 µM.
In the case of `O/N=C1/CC2(N3CCOCC3)C3CC/C(=N\O)C2CC1(Cc1ccccc1)C3` (stereo not drawn), the TGI in test [5], in test [1], in test [2], in test [3] and in test [4] was over 100 µM each time.
On to `Cc1ccc(OCC2OC(n3cnc4c(Cl)nc(Cl)nc43)CC2Oc2ccc(C)cc2)cc1` (stereo not drawn), for which the TGI was determined as 5.42 µM in test [5]; 7.37 µM in test [1]; 5.48 µM in test [2]; 17.9 µM in test [3]; 4.27 µM in test [4].
In the case of `COC(=O)C(COC(=O)/C=C/c1ccc(OC(C)=O)c(OC(C)=O)c1)NC(=O)/C=C/c1ccc(OC(C)=O)c(OC(C)=O)c1` (stereo not drawn), the TGI is 80.4 µM in test [1]; over 100 µM in test [6]; over 100 µM in test [2]; 45.4 µM in test [3]; over 100 µM in test [4].
Take `CCN(CC)C1C(=O)NC1C#Cc1ccccc1` (stereo not drawn): the TGI in test [5], in test [1], in test [6], in test [2] and in test [3] was over 100 µM throughout.
For `Nc1ccc(C23CC4CC(C2)CC(c2ccc(N)cc2)(C4)C3)cc1`, the TGI was over 100 µM in test [1]; 27.4 µM in test [6]; over 100 µM in test [2]; 59.5 µM in test [3]; 28.4 µM in test [4].
Regarding `O=C1c2ccccc2C2C1C(c1ccccc1)C1(Cc3ccccc3C1=O)C2c1ccccc1` (stereo not drawn), the TGI in test [5], in test [1], in test [2], in test [3] and in test [4] was over 100 µM throughout.
On to `COC(=O)[C@H]1COC(=O)N1`, for which the TGI in test [5], in test [1], in test [2], in test [3] and in test [4] was over 100 µM each time.
`COc1cc(/C=C\c2nnc(/C=C\c3ccc(O)c(OC)c3)s2)ccc1O`: the TGI is 13.5 µM in test [5]; 42 µM in test [1]; 0.549 µM in test [2]; over 92.8 µM in test [3]; 10.7 µM in test [4].
